Experimental findings from patent US10844032B2, “Substituted benzofuran, benzothiophene and indole Mcl-1 inhibitors” (Vanderbilt University, priority 2012, dated 2020) are described below.

In general, Ki refers to a measure of affinity in units of concentration, obtained from inhibition or displacement.

The target in the first experiment is recombinant Mcl-1 (residues 172-327) (Homo sapiens (Human), UniProt Q07820). As to the kind of experiment: Bak peptide fluorescence polarization anisotropy competition assay, Mcl-1. The format is binding. The following applies: Table 2, Ki range; FITC-Bak peptide 10 nM, Mcl-1 14 nM; read-out: Ki for inhibition of Mcl-1.
Sequence of recombinant Mcl-1 (residues 172-327) (Q07820 172-327): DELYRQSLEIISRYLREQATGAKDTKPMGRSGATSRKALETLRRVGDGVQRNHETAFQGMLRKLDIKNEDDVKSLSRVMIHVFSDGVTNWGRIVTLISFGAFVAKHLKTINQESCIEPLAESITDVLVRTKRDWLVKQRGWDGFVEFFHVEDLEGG
Turning to `Cc1cc(OCCCc2c(C(=O)NS(=O)(=O)c3ccc(C(=O)O)n3C)[nH]c3cc(Cl)ccc23)cc(C)c1Cl` [Example 266, 5-(N-(6-chloro-3-(3-(4-chloro-3,5-dimethylphenoxy)propyl)-1H-indole-2-carbonyl)sulfamoyl)-1-methyl-1H-pyrrole-2-carboxylic acid], the Ki is at most 100 nM. Regarding `Cc1cc(OCCCc2c(C(=O)NS(=O)(=O)c3ccccc3)[nH]c3c(-c4cnn(C)c4)c(Cl)ccc23)cc(C)c1Cl` [Example 121, 6-chloro-3-(3-(4-chloro-3,5-dimethylphenoxy)propyl)-7-(1-methyl-1H-pyrazol-4-yl)-N-(phenylsulfonyl)-1H-indole-2-carboxamide], the Ki was at most 100 nM. Still for that read-out and setting: the result for `Cc1cc(OCCCc2c(C(=O)NS(=O)(=O)c3ccccc3)[nH]c3c(-c4c(CO)nn(C)c4C)cccc23)cc(C)c1Cl` [Example 127, 3-(3-(4-chloro-3,5-dimethylphenoxy)propyl)-7-(3-(hydroxymethyl)-1,5-dimethyl-1H-pyrazol-4-yl)-N-(phenylsulfonyl)-1H-indole-2-carboxamide] reads at most 100 nM. As for `Cc1cc(OCCCc2c(C(=O)NS(=O)(=O)c3ccccc3)[nH]c3c(-c4ccnc5ccccc45)cccc23)cc(C)c1Cl` [Example 92, 3-(3-(4-chloro-3,5-dimethylphenoxy)propyl)-N-(phenylsulfonyl)-7-(quinolin-4-yl)-1H-indole-2-carboxamide], the Ki was at most 100 nM.

The experiment is the same for the next values; noted with them: read-out: Ki for inhibition of Mcl-1.
On to `Cc1cc(OCCCc2c(C(=O)NS(=O)(=O)C3CCN(C(=O)c4cc(-c5ccccc5O)n[nH]4)CC3)[nH]c3cc(Cl)ccc23)cc(C)c1Cl` [Example 214], for which the Ki lay within 301 to 500 nM. On the same count and under the same terms, the value for `Cc1cc(OCCCc2c(C(=O)NS(=O)(=O)c3ccc(OCc4ccccc4)cc3)[nH]c3ccccc23)cc(C)c1Cl` [Example 136, N-((4-(benzyloxy)phenyl)sulfonyl)-3-(3-(4-chloro-3,5-dimethylphenoxy)propyl)-1H-indole-2-carboxamide] was 101 to 299 nM; that for `Cc1cc(OCCCc2c(C(=O)NS(=O)(=O)CCN3C(=O)c4ccccc4C3=O)[nH]c3cc(Cl)ccc23)cc(C)c1Cl` [Example 250, 6-chloro-3-(3-(4-chloro-3,5-dimethylphenoxy)propyl)-N-((2-(1,3-dioxoisoindolin-2-yl)ethyl)sulfonyl)-1H-indole-2-carboxamide] was 101 to 299 nM. Still for that read-out and setting: the result for `Cc1cc(OCCCc2c(C(=O)NS(=O)(=O)CCNC(=O)c3cccn3-c3ccccc3)[nH]c3ccccc23)cc(C)c1Cl` [Example 172, 3-(3-(4-chloro-3,5-dimethylphenoxy)propyl)-N-((2-(1-phenyl-1H-pyrrole-2-carboxamido)ethyl)sulfonyl)-1H-indole-2-carboxamide] reads 101 to 299 nM; that for `O=C(O)c1oc2ccccc2c1CCc1cccc2ccccc12` [Example 23, 3-(2-(naphthalen-1-yl)ethyl)benzofuran-2-carboxylic acid], 10000 to 50000 nM. The same measure, in the same setting: the value for `Cc1cc(OCCCc2c(C(=O)NS(=O)(=O)CCNC(=O)Cc3cn(C)c4ccccc34)[nH]c3ccccc23)cc(C)c1Cl` [Example 175, 3-(3-(4-chloro-3,5-dimethylphenoxy)propyl)-N-((2-(2-(1-methyl-1H-indol-3-yl)acetamido)ethyl)sulfonyl)-1H-indole-2-carboxamide] was 101 to 299 nM. As to `CCc1cc(OCCCc2c(C(=O)NS(C)(=O)=O)[nH]c3ccccc23)ccc1Cl` [Example 44, 3-(3-(4-chloro-3-ethylphenoxy)propyl)-N-(methylsulfonyl)-1H-indole-2-carboxamide], the Ki lay in the range of 1000 to 9990 nM. Still for that read-out and setting: the value for `Cc1cc(OCCCc2c(C(=O)NS(=O)(=O)CCNC(=O)c3cc(F)cc(F)n3)[nH]c3ccccc23)cc(C)c1Cl` [Example 191, 3-(3-(4-chloro-3,5-dimethylphenoxy)propyl)-N-((2-(4,6-difluoropicolinamido)ethyl)sulfonyl)-1H-indole-2-carboxamide] was 1000 to 9990 nM; that for `COC(=O)c1ccc(S(=O)(=O)NC(=O)c2[nH]c3cc(Cl)ccc3c2CCCOc2cc(C)c(Cl)c(C)c2)n1C` [Example 265, methyl 5-(N-(6-chloro-3-(3-(4-chloro-3,5-dimethylphenoxy)propyl)-1H-indole-2-carbonyl)sulfamoyl)-1-methyl-1H-pyrrole-2-carboxylate] was 101 to 299 nM; that for `Cc1cc(OCCCc2c(C(=O)NS(=O)(=O)c3ccc(-c4ccccc4)cc3)[nH]c3cc(Cl)ccc23)cc(C)c1Cl` [Example 219, N-([1,1′-biphenyl]-4-ylsulfonyl)-6-chloro-3-(3-(4-chloro-3,5-dimethylphenoxy)propyl)-1H-indole-2-carboxamide] was 301 to 500 nM. In the case of `Cc1cc(OCCCc2c(C(=O)NS(=O)(=O)C3CCN(C(=O)C4CCCCC4)CC3)[nH]c3cc(Cl)ccc23)cc(C)c1Cl` [Example 212, 6-chloro-3-(3-(4-chloro-3,5-dimethylphenoxy)propyl)-N-((1-(cyclohexanecarbonyl)piperidin-4-yl)sulfonyl)-1H-indole-2-carboxamide], the Ki fell in the range of 301 to 500 nM. On the same count and under the same terms, the value for `Cc1cc(OCCCc2c(C(=O)NS(=O)(=O)c3ccc(OCc4ccccc4)nc3)[nH]c3ccccc23)cc(C)c1Cl` [Example 144, N-((6-(benzyloxy)pyridin-3-yl)sulfonyl)-3-(3-(4-chloro-3,5-dimethylphenoxy)propyl)-1H-indole-2-carboxamide] was 301 to 500 nM; that for `Cc1cc(OCCCc2c(C(=O)NS(=O)(=O)c3ccc(Oc4ccccc4)cc3)[nH]c3cc(Cl)ccc23)cc(C)c1Cl` [Example 222, 6-chloro-3-(3-(4-chloro-3,5-dimethylphenoxy)propyl)-N-((4-phenoxyphenyl)sulfonyl)-1H-indole-2-carboxamide] was 101 to 299 nM. Same read-out and setting: the value for `Cc1ccc2c(CCCOc3cccc4ccccc34)c(C(=O)NS(C)(=O)=O)[nH]c2c1` [Example 118, 6-Methyl-N-(methylsulfonyl)-3-(3-(naphthalen-1-yloxy)propyl)-1H-indole-2-carboxamide] was 1000 to 9990 nM.

`Cc1cccc(Cn2cccc2C(=O)NCCS(=O)(=O)NC(=O)c2[nH]c3cc(Cl)ccc3c2CCCOc2cc(C)c(Cl)c(C)c2)c1` [Example 245, 6-chloro-3-(3-(4-chloro-3,5-dimethylphenoxy)propyl)-N-((2-(1-(3-methylbenzyl)-1H-pyrrole-2-carboxamido)ethyl)sulfonyl)-1H-indole-2-carboxamide]: the Ki is 101 to 299 nM. On the same count and under the same terms, the value for `Cc1cc(OCCCc2c(C(=O)NS(=O)(=O)c3ccccc3)[nH]c3c(-c4ccncc4)cccc23)cc(C)c1Cl` [Example 94, 3-(3-(4-chloro-3,5-dimethylphenoxy)propyl)-N-(phenylsulfonyl)-7-(pyridin-4-yl)-1H-indole-2-carboxamide] was 101 to 299 nM; that for `Cc1cc(OCCCc2c(C(=O)NS(C)(=O)=O)[nH]c3ccccc23)cc(C)c1Cl` [Example 29, 3-(3-(4-chloro-3,5-dimethylphenoxy)propyl)-N-(methylsulfonyl)-1H-indole-2-carboxamide] was 501 to 999 nM. Still for that read-out and setting: the result for `CS(=O)(=O)NC(=O)c1[nH]c2ccccc2c1CCCOc1ccc2c(c1)CCCC2` [Example 38, N-(methylsulfonyl)-3-(3-((5,6,7,8-tetrahydronaphthalen-2-yl)oxy)propyl)-1H-indole-2-carboxamide] reads 1000 to 9990 nM; that for `Cc1cc(OCCCc2c(C(=O)NS(=O)(=O)CCNC(=O)c3ccno3)[nH]c3ccccc23)cc(C)c1Cl` [Example 154, N-(2-(N-(3-(3-(4-chloro-3,5-dimethylphenoxy)propyl)-1H-indole-2-carbonyl)sulfamoyl)ethyl)isoxazole-5-carboxamide], 501 to 999 nM; that for `Cc1cc(OCCCc2c(C(=O)NS(=O)(=O)c3ccccc3)[nH]c3c(-c4cccnc4)cccc23)cc(C)c1Cl` [Example 93, 3-(3-(4-chloro-3,5-dimethylphenoxy)propyl)-N-(phenylsulfonyl)-7-(pyridin-3-yl)-1H-indole-2-carboxamide], 101 to 299 nM. The same measure, in the same setting: the result for `Cc1cc(OCCCc2c(C(=O)NS(=O)(=O)CCNC(=O)c3ccccn3)[nH]c3ccccc23)cc(C)c1Cl` [Example 190, 3-(3-(4-chloro-3,5-dimethylphenoxy)propyl)-N-((2-(picolinamido)ethyl)sulfonyl)-1H-indole-2-carboxamide] reads 101 to 299 nM.

The target of another experiment is Bcl-2 (residues 1-207 A96T,G110R, Δ35-91, replaced with Bcl-xL35-50) (Homo sapiens, UniProt P10415, A37E/DEL42-87/G36T/INS34DVEEN/P40E/P88T/P90S/P91E/V35R/V89E). The experiment is described as follows: Bak peptide fluorescence polarization anisotropy competition assay, Bcl-2 selectivity. The format is binding. The following applies: Table 3; FITC-Bak peptide 10 nM, Bcl-2 40 nM. As for the experimental part: Compound affinity was measured using a fluorescence polarization anisotropy competition assay. Anisotropy measurements were carried out in 384-well, black, flat-bottom plates (Greiner Bio-one, Monroe, N.C., USA).
Sequence of Bcl-2 (residues 1-207 A96T,G110R, Δ35-91, replaced with Bcl-xL35-50) (P10415 with tags, fused parts or gaps A37E/DEL42-87/G36T/INS34DVEEN/P40E/P88T/P90S/P91E/V35R/V89E): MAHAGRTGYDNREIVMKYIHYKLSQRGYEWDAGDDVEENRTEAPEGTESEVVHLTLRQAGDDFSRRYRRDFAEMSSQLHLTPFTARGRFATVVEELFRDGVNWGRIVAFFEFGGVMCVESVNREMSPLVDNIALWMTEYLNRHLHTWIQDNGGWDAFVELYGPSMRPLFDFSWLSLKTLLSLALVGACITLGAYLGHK
Compounds are diluted in DMSO in a 10-point, 3-fold serial dilution scheme. 2.5 uL compound is added to 47.5 uL of assay buffer containing FITC-Bak and protein, for a final DMSO concentration of 5% and a top concentration of 20 uM. […] The plate was mixed and incubated for 90 minutes at room temperature.
A general note: Fluorescence polarisation rises when a labelled molecule tumbles more slowly, as on binding a larger partner.
For `O=C(O)c1sc2cc(Cl)ccc2c1CCCOc1cccc2ccccc12` [Example 5, 6-chloro-3-(3-(naphthalen-1-yloxy)propyl)benzo[b]thiophene-2-carboxylic acid], the affinity, expressed as Ki, was 1100 nM.

Regarding `O=C(O)c1oc2ccccc2c1CCCOc1cccc2ccccc12` [Example 21, 3-(3-(naphthalen-1-yloxy)propyl)benzofuran-2-carboxylic acid], the affinity, expressed as Ki, was 4600 nM.
